Test results: PubChem BioAssay AID1918949 (Molecular Pharmacology Branch, DTP, NCI, 2023)
pIC50: −log10 of the molar value. Several values for one entry are separate records, joined by “and”; a condition that tells them apart may be missing. Equal entries are not always repeated.

Test system: K24384-001-R-PDC complex spheroid viability
Test: Anticancer human tumor K24384-001-R-PDC patient-derived pancreatic adenocarcinoma cell line growth inhibition
Details: for viability, T/C: stronger effect = lower value; active = viability on the fitted dose curve at most 10% of control; inactive = the rest
Summary of the method: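 Drug combinations with the LSD1 inhibitor iadademstat tested on tumor cells co-cultured as spheroids with endothelial cells and mesenchymal stem cells. Concentrations descended in half-log increments from clinical Cmax or 10 microM.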

[1] = curve of first compound, second compound 0.1 µM
[2] = curve of first compound, second compound 0.316 µM
[3] = curve of first compound, second compound 1 µM
[4] = curve of first compound, second compound 3.16 µM
[5] = curve of first compound, second compound 10 µM
[6] = second compound 0.1 µM, first compound 0.00316 µM
[7] = second compound 0.1 µM, first compound 0.01 µM
[8] = second compound 0.1 µM, first compound 0.0316 µM
[9] = second compound 0.1 µM, first compound 0.1 µM
[10] = second compound 0.316 µM, first compound 0.00316 µM
[11] = second compound 0.316 µM, first compound 0.01 µM
[12] = second compound 0.316 µM, first compound 0.0316 µM
[13] = second compound 0.316 µM, first compound 0.1 µM
[14] = second compound 1 µM, first compound 0.00316 µM
[15] = second compound 1 µM, first compound 0.01 µM
[16] = second compound 1 µM, first compound 0.0316 µM
[17] = second compound 1 µM, first compound 0.1 µM
[18] = second compound 3.16 µM, first compound 0.00316 µM
[19] = second compound 3.16 µM, first compound 0.01 µM
[20] = second compound 3.16 µM, first compound 0.0316 µM
[21] = second compound 3.16 µM, first compound 0.1 µM
[22] = second compound 10 µM, first compound 0.00316 µM
[23] = second compound 10 µM, first compound 0.01 µM
[24] = second compound 10 µM, first compound 0.0316 µM
[25] = second compound 10 µM, first compound 0.1 µM
[26] = second compound 0.1 µM, first compound 0.316 µM
[27] = second compound 0.1 µM, first compound 1 µM
[28] = second compound 0.316 µM, first compound 0.316 µM
[29] = second compound 0.316 µM, first compound 1 µM
[30] = second compound 1 µM, first compound 0.316 µM
[31] = second compound 1 µM, first compound 1 µM
[32] = second compound 3.16 µM, first compound 0.316 µM
[33] = second compound 3.16 µM, first compound 1 µM
[34] = second compound 10 µM, first compound 0.316 µM
[35] = second compound 10 µM, first compound 1 µM
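Note: spheroids exposed to agents for seven days before luminescence viability reading.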
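Throughout, for viability, T/C: 100% = DMSO vehicle control viability.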

CC(C)CC(NC(=O)CNC(=O)c1cc(Cl)ccc1Cl)B1OC(=O)CC(CC(=O)O)(C(=O)O)O1 (stereo unspecified) + NC1CC1c1ccc(-c2cccc(O)c2)cc1
8.07: pIC50 [3]
8.06: pIC50 [4]
8.04: pIC50 [2]
8.05: pIC50 [1]
active: viability, T/C [8] 4.82% | viability, T/C [9] 0.93% | viability, T/C [12] 4.68% | viability, T/C [13] 0.79% | viability, T/C [16] 4.54% | viability, T/C [17] 0.98% | viability, T/C [20] 4.31% | viability, T/C [21] 0.85% | viability, T/C [24] 2.96% | viability, T/C [25] 0.48%
inactive: viability, T/C (second compound 0.1 µM, first compound 0.000316 µM) 121% | viability, T/C (second compound 0.1 µM, first compound 0.001 µM) 123% | viability, T/C [6] 97.3% | viability, T/C [7] 46.6% | viability, T/C (second compound 0.316 µM, first compound 0.000316 µM) 114% | viability, T/C (second compound 0.316 µM, first compound 0.001 µM) 113% | viability, T/C [10] 95.4% | viability, T/C [11] 47.8% | viability, T/C (second compound 1 µM, first compound 0.000316 µM) 112% | viability, T/C (second compound 1 µM, first compound 0.001 µM) 129% | viability, T/C [14] 117% | viability, T/C [15] 38.8% | viability, T/C (second compound 3.16 µM, first compound 0.000316 µM) 117% | viability, T/C (second compound 3.16 µM, first compound 0.001 µM) 109% | viability, T/C [18] 101% | viability, T/C [19] 42.9% | viability, T/C (second compound 10 µM, first compound 0.000316 µM) 111% | viability, T/C (second compound 10 µM, first compound 0.001 µM) 136% | viability, T/C [22] 103% | viability, T/C [23] 28.1%
8.15: pIC50 [5]

O=C(C=Cc1cccc(S(=O)(=O)Nc2ccccc2)c1)NO + NC1CC1c1ccc(-c2cccc(O)c2)cc1
6.73: pIC50 [5]
6.63: pIC50 [2] | pIC50 [4]
6.62: pIC50 [1]
inactive: viability, T/C (second compound 0.1 µM, first compound 0.00949 µM) 105% | viability, T/C (second compound 0.1 µM, first compound 0.03 µM) 111% | viability, T/C (second compound 0.1 µM, first compound 0.0949 µM) 95.5% | viability, T/C (second compound 0.1 µM, first compound 0.3 µM) 39.3% | viability, T/C (second compound 0.316 µM, first compound 0.00949 µM) 90% | viability, T/C (second compound 0.316 µM, first compound 0.03 µM) 108% | viability, T/C (second compound 0.316 µM, first compound 0.0949 µM) 117% | viability, T/C (second compound 0.316 µM, first compound 0.3 µM) 34.4% | viability, T/C (second compound 1 µM, first compound 0.00949 µM) 80.9% | viability, T/C (second compound 1 µM, first compound 0.03 µM) 113% | viability, T/C (second compound 1 µM, first compound 0.0949 µM) 98.1% | viability, T/C (second compound 1 µM, first compound 0.3 µM) 35.6% | viability, T/C (second compound 3.16 µM, first compound 0.00949 µM) 85% | viability, T/C (second compound 3.16 µM, first compound 0.03 µM) 124% | viability, T/C (second compound 3.16 µM, first compound 0.0949 µM) 103% | viability, T/C (second compound 3.16 µM, first compound 0.3 µM) 35.5% | viability, T/C (second compound 10 µM, first compound 0.00949 µM) 81.1% | viability, T/C (second compound 10 µM, first compound 0.03 µM) 114% | viability, T/C (second compound 10 µM, first compound 0.0949 µM) 70.7% | viability, T/C (second compound 10 µM, first compound 0.3 µM) 32.7%
6.64: pIC50 [3]
active: viability, T/C (second compound 0.1 µM, first compound 0.949 µM) 3.97% | viability, T/C (second compound 0.1 µM, first compound 3 µM) 2.49% | viability, T/C (second compound 0.316 µM, first compound 0.949 µM) 4.35% | viability, T/C (second compound 0.316 µM, first compound 3 µM) 1.43% | viability, T/C (second compound 1 µM, first compound 0.949 µM) 5.51% | viability, T/C (second compound 1 µM, first compound 3 µM) 0.1% | viability, T/C (second compound 3.16 µM, first compound 0.949 µM) 4.17% | viability, T/C (second compound 3.16 µM, first compound 3 µM) 0.1% | viability, T/C (second compound 10 µM, first compound 0.949 µM) 5.8% | viability, T/C (second compound 10 µM, first compound 3 µM) 0.18%

COc1cc(Nc2ncc3c(n2)-c2ccc(Cl)cc2C(c2c(F)cccc2OC)=NC3)ccc1C(=O)O + NC1CCC(NC2CC2c2ccccc2)CC1
< 6.00: pIC50 [1] | pIC50 [2] | pIC50 [3] | pIC50 [4] | pIC50 [5]
inactive: viability, T/C [6] 82.2% | viability, T/C [7] 91.4% | viability, T/C [8] 70.1% | viability, T/C [9] 54.5% | viability, T/C [26] 58.4% | viability, T/C [27] 84.1% | viability, T/C [10] 87.8% | viability, T/C [11] 72% | viability, T/C [12] 71% | viability, T/C [13] 56.7% | viability, T/C [28] 52.2% | viability, T/C [29] 58.6% | viability, T/C [14] 71.1% | viability, T/C [15] 87.3% | viability, T/C [16] 59.8% | viability, T/C [17] 53.8% | viability, T/C [30] 67.3% | viability, T/C [31] 60.7% | viability, T/C [18] 83.7% | viability, T/C [19] 77.6% | viability, T/C [20] 62.2% | viability, T/C [21] 57.3% | viability, T/C [32] 51.9% | viability, T/C [33] 60.6% | viability, T/C [22] 80.8% | viability, T/C [23] 84.1% | viability, T/C [24] 58.9% | viability, T/C [25] 58.8% | viability, T/C [34] 52.4% | viability, T/C [35] 60.8%

CC1COCCN1c1cc(-c2ccnn2C)c2ccnc(-c3ccn[nH]3)c2n1 (stereo unspecified) + NC1CCC(NC2CC2c2ccccc2)CC1
8.29: pIC50 [5]
7.25: pIC50 [1]
8.11: pIC50 [3]
> 8.50: pIC50 [2]
8.04: pIC50 [4]
inactive: viability, T/C [6] 54.7% | viability, T/C [7] 56.7% | viability, T/C [8] 49% | viability, T/C [9] 45.1% | viability, T/C [26] 52.2% | viability, T/C [27] 42.4% | viability, T/C [10] 52.6% | viability, T/C [11] 48.3% | viability, T/C [12] 42.5% | viability, T/C [13] 43.3% | viability, T/C [28] 51.6% | viability, T/C [29] 44.4% | viability, T/C [14] 51% | viability, T/C [15] 56.5% | viability, T/C [16] 41.6% | viability, T/C [17] 40.2% | viability, T/C [30] 47.5% | viability, T/C [31] 44.2% | viability, T/C [18] 55.4% | viability, T/C [19] 51.7% | viability, T/C [20] 41.8% | viability, T/C [21] 42% | viability, T/C [32] 49.7% | viability, T/C [33] 36.2% | viability, T/C [22] 48.4% | viability, T/C [23] 54.9% | viability, T/C [24] 39.2% | viability, T/C [25] 34.7% | viability, T/C [34] 33.2% | viability, T/C [35] 31.6%

NC1CCC(NC2CC2c2ccccc2)CC1 (stereo unspecified)
inactive: viability, T/C (compound 0.316 µM) 83.6% and 74.8%
< 5.00: pIC50 (compound alone, run of 02/15/2022)

Nc1ncn(C2CC(O)C(CO)O2)c(=O)n1 (stereo unspecified) + NC1CC1c1ccc(-c2cccc(O)c2)cc1
inactive: viability, T/C [6] 89.9% | viability, T/C [7] 86.7% | viability, T/C [8] 97.5% | viability, T/C [9] 80.2% | viability, T/C [26] 70.4% | viability, T/C [27] 79% | viability, T/C [10] 78.3% | viability, T/C [11] 98.4% | viability, T/C [12] 86.5% | viability, T/C [13] 85.3% | viability, T/C [28] 78.6% | viability, T/C [29] 68.9% | viability, T/C [14] 97.8% | viability, T/C [15] 91.3% | viability, T/C [16] 84% | viability, T/C [17] 67.9% | viability, T/C [30] 72.5% | viability, T/C [31] 70.6% | viability, T/C [18] 88.4% | viability, T/C [19] 88.4% | viability, T/C [20] 87.8% | viability, T/C [21] 79.2% | viability, T/C [32] 80.1% | viability, T/C [33] 82.6% | viability, T/C [22] 101% | viability, T/C [23] 97.2% | viability, T/C [24] 89.4% | viability, T/C [25] 90.3% | viability, T/C [34] 77.9% | viability, T/C [35] 87.7%
< 6.00: pIC50 [1] | pIC50 [2] | pIC50 [3] | pIC50 [4] | pIC50 [5]

COc1ccc([C@@H](O)c2cc(-c3ncnc4cc(N5CCOCC5)ccc34)c(F)cc2Cl)nn1
inactive: viability, T/C (compound 0.0316 µM) 102% and 111% | viability, T/C (compound 0.1 µM) 94.1% and 102% | viability, T/C (compound 0.316 µM) 94.3% and 82.1% | viability, T/C (compound 1 µM) 68.3% and 63.3% | viability, T/C (compound 3.16 µM) 39.1% and 44.5% | viability, T/C (compound 10 µM) 15.3% and 16.4%
5.68: pIC50 (curve of compound)

COc1cc(C2c3cc4c(cc3C(OC3OC5COC(C)OC5C(O)C3O)C3COC(=O)C23)OCO4)cc(OC)c1O (stereo unspecified)
5.80 and 6.34: pIC50 (curve of compound)
inactive: viability, T/C (compound 0.00949 µM) 96.2% and 95.2% | viability, T/C (compound 0.03 µM) 91.9% and 98.1% | viability, T/C (compound 0.0949 µM) 82% and 74.3% | viability, T/C (compound 0.3 µM) 62.3% and 52.5% | viability, T/C (compound 0.949 µM) 59.8% and 49.5% | viability, T/C (compound 3 µM) 42.1% and 33%
